Test results published in PubChem BioAssay (NCI).
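These data come from cells grown in 96-well plates and exposed to compound for 48 hours at five concentrations. GI50: concentration for 50% inhibition of growth. TGI: concentration producing complete growth inhibition.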

Experiments:
Test in all cases: inhibition of tumour cell growth, NCI panel, 48 h
COLO 205 colon = test system: COLO 205 colon
MOLT-4 leukemia = test system: MOLT-4 leukemia
CAKI-1 renal = test system: CAKI-1 renal
ACHN renal = test system: ACHN renal
HCT-15 colon = test system: HCT-15 colon
U251 CNS = test system: U251 CNS
SF-539 CNS = test system: SF-539 CNS
786-0 renal = test system: 786-0 renal
NCI-H460 lung = test system: NCI-H460 lung
MDA-MB-231 breast = test system: MDA-MB-231 breast
SK-OV-3 ovarian = test system: SK-OV-3 ovarian
OVCAR-4 ovarian = test system: OVCAR-4 ovarian
NCI-H23 lung = test system: NCI-H23 lung
UO-31 renal = test system: UO-31 renal
A549 NSCLC = test system: A549 NSCLC
HCT-116 colon = test system: HCT-116 colon
TK-10 renal = test system: TK-10 renal
OVCAR-3 ovarian = test system: OVCAR-3 ovarian
IGROV1 ovarian = test system: IGROV1 ovarian
K-562 leukemia = test system: K-562 leukemia
SNB-19 CNS = test system: SNB-19 CNS
OVCAR-8 ovarian = test system: OVCAR-8 ovarian
LOX IMVI melanoma = test system: LOX IMVI melanoma
BT-549 breast = test system: BT-549 breast
RXF 393 renal = test system: RXF 393 renal
SR leukemia = test system: SR leukemia
HOP-62 NSCLC = test system: HOP-62 NSCLC
SNB-75 CNS = test system: SNB-75 CNS
MDA-MB-435 = test system: MDA-MB-435
CCRF-CEM leukemia = test system: CCRF-CEM leukemia
HL-60(TB) leukemia = test system: HL-60(TB) leukemia
M14 melanoma = test system: M14 melanoma
SK-MEL-28 melanoma = test system: SK-MEL-28 melanoma
MALME-3M melanoma = test system: MALME-3M melanoma
KM12 colon = test system: KM12 colon
NCI/ADR-RES ovarian = test system: NCI/ADR-RES ovarian
T-47D breast = test system: T-47D breast
A498 renal = test system: A498 renal
EKVX NSCLC = test system: EKVX NSCLC
NCI-H226 lung = test system: NCI-H226 lung
HT29 colon = test system: HT29 colon
SK-MEL-5 melanoma = test system: SK-MEL-5 melanoma
SF-295 CNS = test system: SF-295 CNS
PC-3 prostate = test system: PC-3 prostate
HCC-2998 colon = test system: HCC-2998 colon
OVCAR-5 ovarian = test system: OVCAR-5 ovarian
MCF7 breast = test system: MCF7 breast
SN12C renal = test system: SN12C renal
SF-268 CNS = test system: SF-268 CNS
UACC-62 melanoma = test system: UACC-62 melanoma
UACC-257 melanoma = test system: UACC-257 melanoma
DU-145 prostate = test system: DU-145 prostate
SK-MEL-2 melanoma = test system: SK-MEL-2 melanoma
SW-620 colon = test system: SW-620 colon
NCI-H522 lung = test system: NCI-H522 lung
RPMI-8226 leukemia = test system: RPMI-8226 leukemia
HS 578T breast = test system: HS 578T breast
HOP-92 NSCLC = test system: HOP-92 NSCLC

COc1cc(C)cc2c1OC(c1ccccc1)CC2=O (centres undefined)
GI50 (COLO 205 colon): > 100 µM
TGI (COLO 205 colon): > 100 µM
GI50 (MOLT-4 leukemia): > 100 µM
TGI (MOLT-4 leukemia): > 100 µM
GI50 (CAKI-1 renal): > 100 µM
TGI (CAKI-1 renal): > 100 µM
GI50 (ACHN renal): > 100 µM
TGI (ACHN renal): > 100 µM
GI50 (HCT-15 colon): > 100 µM
TGI (HCT-15 colon): > 100 µM
GI50 (U251 CNS): > 100 µM
TGI (U251 CNS): > 100 µM
GI50 (SF-539 CNS): > 100 µM
TGI (SF-539 CNS): > 100 µM
GI50 (786-0 renal): > 100 µM
TGI (786-0 renal): > 100 µM
GI50 (NCI-H460 lung): > 100 µM
TGI (NCI-H460 lung): > 100 µM
GI50 (MDA-MB-231 breast): > 100 µM
TGI (MDA-MB-231 breast): > 100 µM
GI50 (SK-OV-3 ovarian): > 100 µM
TGI (SK-OV-3 ovarian): > 100 µM
GI50 (OVCAR-4 ovarian): > 100 µM
TGI (OVCAR-4 ovarian): > 100 µM
GI50 (NCI-H23 lung): > 100 µM
TGI (NCI-H23 lung): > 100 µM
GI50 (UO-31 renal): > 100 µM
TGI (UO-31 renal): > 100 µM
GI50 (A549 NSCLC): > 100 µM
TGI (A549 NSCLC): > 100 µM
GI50 (HCT-116 colon): > 100 µM
TGI (HCT-116 colon): > 100 µM
GI50 (TK-10 renal): > 100 µM
TGI (TK-10 renal): > 100 µM
GI50 (OVCAR-3 ovarian): > 100 µM
TGI (OVCAR-3 ovarian): > 100 µM
GI50 (IGROV1 ovarian): > 100 µM
TGI (IGROV1 ovarian): > 100 µM
GI50 (K-562 leukemia): > 100 µM
TGI (K-562 leukemia): > 100 µM
GI50 (SNB-19 CNS): > 100 µM
TGI (SNB-19 CNS): > 100 µM
GI50 (OVCAR-8 ovarian): > 100 µM
TGI (OVCAR-8 ovarian): > 100 µM
GI50 (LOX IMVI melanoma): > 100 µM
TGI (LOX IMVI melanoma): > 100 µM
GI50 (BT-549 breast): > 100 µM
TGI (BT-549 breast): > 100 µM
GI50 (RXF 393 renal): > 100 µM
TGI (RXF 393 renal): > 100 µM
GI50 (SR leukemia): > 100 µM
TGI (SR leukemia): > 100 µM
GI50 (HOP-62 NSCLC): > 100 µM
TGI (HOP-62 NSCLC): > 100 µM
GI50 (SNB-75 CNS): > 100 µM
TGI (SNB-75 CNS): > 100 µM
GI50 (MDA-MB-435): > 100 µM
TGI (MDA-MB-435): > 100 µM
GI50 (CCRF-CEM leukemia): > 100 µM
TGI (CCRF-CEM leukemia): > 100 µM
GI50 (HL-60(TB) leukemia): > 100 µM
TGI (HL-60(TB) leukemia): > 100 µM
GI50 (M14 melanoma): > 100 µM
TGI (M14 melanoma): > 100 µM
GI50 (SK-MEL-28 melanoma): > 100 µM
TGI (SK-MEL-28 melanoma): > 100 µM
GI50 (MALME-3M melanoma): > 100 µM
TGI (MALME-3M melanoma): > 100 µM
GI50 (KM12 colon): > 100 µM
TGI (KM12 colon): > 100 µM
GI50 (NCI/ADR-RES ovarian): > 100 µM
TGI (NCI/ADR-RES ovarian): > 100 µM
GI50 (T-47D breast): > 100 µM
TGI (T-47D breast): > 100 µM
GI50 (A498 renal): > 100 µM
TGI (A498 renal): > 100 µM
GI50 (EKVX NSCLC): > 100 µM
TGI (EKVX NSCLC): > 100 µM
GI50 (NCI-H226 lung): > 100 µM
TGI (NCI-H226 lung): > 100 µM
GI50 (HT29 colon): > 100 µM
TGI (HT29 colon): > 100 µM
GI50 (SK-MEL-5 melanoma): > 100 µM
TGI (SK-MEL-5 melanoma): > 100 µM
GI50 (SF-295 CNS): > 100 µM
TGI (SF-295 CNS): > 100 µM
GI50 (PC-3 prostate): > 100 µM
TGI (PC-3 prostate): > 100 µM
GI50 (HCC-2998 colon): > 100 µM
TGI (HCC-2998 colon): > 100 µM
GI50 (OVCAR-5 ovarian): > 100 µM
TGI (OVCAR-5 ovarian): > 100 µM
GI50 (MCF7 breast): > 100 µM
TGI (MCF7 breast): > 100 µM
GI50 (SN12C renal): > 100 µM
TGI (SN12C renal): > 100 µM
GI50 (SF-268 CNS): > 100 µM
TGI (SF-268 CNS): > 100 µM
GI50 (UACC-62 melanoma): > 100 µM
TGI (UACC-62 melanoma): > 100 µM
GI50 (UACC-257 melanoma): > 100 µM
TGI (UACC-257 melanoma): > 100 µM
GI50 (DU-145 prostate): > 100 µM
TGI (DU-145 prostate): > 100 µM
GI50 (SK-MEL-2 melanoma): > 100 µM
TGI (SK-MEL-2 melanoma): > 100 µM
GI50 (SW-620 colon): > 100 µM
TGI (SW-620 colon): > 100 µM

COc1n[n+]([O-])c(C)cc1[N+](=O)[O-]
GI50 (MOLT-4 leukemia): 10.7 µM
TGI (MOLT-4 leukemia): 35.1 µM
GI50 (CAKI-1 renal): 4.84 µM
TGI (CAKI-1 renal): 19.1 µM
GI50 (ACHN renal): 5.14 µM
TGI (ACHN renal): 18.1 µM
GI50 (HCT-15 colon): 2.74 µM
TGI (HCT-15 colon): 13.9 µM
GI50 (NCI-H522 lung): 8.26 µM
TGI (NCI-H522 lung): 22.7 µM
GI50 (U251 CNS): 16.8 µM
TGI (U251 CNS): 34.5 µM
GI50 (RPMI-8226 leukemia): 2.73 µM
TGI (RPMI-8226 leukemia): 19.1 µM
GI50 (SF-539 CNS): 19.5 µM
TGI (SF-539 CNS): 35.4 µM
GI50 (786-0 renal): 8.4 µM
TGI (786-0 renal): 21.7 µM
GI50 (NCI-H460 lung): 3.05 µM
TGI (NCI-H460 lung): 16.4 µM
GI50 (MDA-MB-231 breast): 19.5 µM
TGI (MDA-MB-231 breast): 42.2 µM
GI50 (OVCAR-4 ovarian): 16.1 µM
TGI (OVCAR-4 ovarian): 30.5 µM
GI50 (NCI-H23 lung): 14.8 µM
TGI (NCI-H23 lung): 30.3 µM
GI50 (UO-31 renal): 12.6 µM
TGI (UO-31 renal): 25.4 µM
GI50 (A549 NSCLC): 5.5 µM
TGI (A549 NSCLC): 24.6 µM
GI50 (HCT-116 colon): 10.2 µM
TGI (HCT-116 colon): 23.9 µM
GI50 (TK-10 renal): 2.42 µM
TGI (TK-10 renal): 10.2 µM
GI50 (OVCAR-3 ovarian): 8.44 µM
TGI (OVCAR-3 ovarian): 28.4 µM
GI50 (IGROV1 ovarian): 12.1 µM
TGI (IGROV1 ovarian): 24.8 µM
GI50 (OVCAR-8 ovarian): 13.4 µM
TGI (OVCAR-8 ovarian): 39.5 µM
GI50 (LOX IMVI melanoma): 12.7 µM
TGI (LOX IMVI melanoma): 36 µM
GI50 (BT-549 breast): 18.9 µM
TGI (BT-549 breast): 33.2 µM
GI50 (RXF 393 renal): 13.3 µM
TGI (RXF 393 renal): 28.7 µM
GI50 (SR leukemia): 11.1 µM
TGI (SR leukemia): 31.2 µM
GI50 (HOP-62 NSCLC): 16.6 µM
TGI (HOP-62 NSCLC): 31.5 µM
GI50 (MDA-MB-435): 16.2 µM
TGI (MDA-MB-435): 33.8 µM
GI50 (M14 melanoma): 4.97 µM
TGI (M14 melanoma): 18.3 µM
GI50 (MALME-3M melanoma): 3.04 µM
TGI (MALME-3M melanoma): 9.85 µM
GI50 (KM12 colon): 11.4 µM
TGI (KM12 colon): 30.3 µM
GI50 (NCI/ADR-RES ovarian): 19.1 µM
TGI (NCI/ADR-RES ovarian): 43.7 µM
GI50 (A498 renal): 20.2 µM
TGI (A498 renal): 46.3 µM
GI50 (EKVX NSCLC): 18.1 µM
TGI (EKVX NSCLC): 34.3 µM
GI50 (NCI-H226 lung): 24.4 µM
TGI (NCI-H226 lung): 63.3 µM
GI50 (SK-MEL-5 melanoma): 11.3 µM
TGI (SK-MEL-5 melanoma): 24.5 µM
GI50 (SF-295 CNS): 11.3 µM
TGI (SF-295 CNS): 28.5 µM
GI50 (PC-3 prostate): 15.9 µM
TGI (PC-3 prostate): 32.6 µM
GI50 (HS 578T breast): 32.3 µM
TGI (HS 578T breast): 67.3 µM
GI50 (HCC-2998 colon): 14.3 µM
TGI (HCC-2998 colon): 27.6 µM
GI50 (OVCAR-5 ovarian): 19.6 µM
TGI (OVCAR-5 ovarian): 35.9 µM
GI50 (MCF7 breast): 2.07 µM
TGI (MCF7 breast): 16.2 µM
GI50 (HOP-92 NSCLC): 16.2 µM
TGI (HOP-92 NSCLC): 35.2 µM
GI50 (SN12C renal): 13.5 µM
TGI (SN12C renal): 31.6 µM
GI50 (SF-268 CNS): 18.1 µM
TGI (SF-268 CNS): 39.4 µM
GI50 (UACC-62 melanoma): 10.7 µM
TGI (UACC-62 melanoma): 23.7 µM
GI50 (UACC-257 melanoma): 10.9 µM
TGI (UACC-257 melanoma): 24.4 µM
GI50 (DU-145 prostate): 15.7 µM
TGI (DU-145 prostate): 29.3 µM
GI50 (SK-MEL-2 melanoma): 11.2 µM
TGI (SK-MEL-2 melanoma): 24.5 µM
GI50 (SW-620 colon): 15.7 µM
TGI (SW-620 colon): 39.6 µM
